This is an account of results in patent US6864286B2, “Inhibitors of the EGF-receptor tyrosine kinase and methods for their use” (Parker Hughes Institute, priority 1998, dated 2005).

Usually IC50 stands for the concentration needed to halve the response being measured.

The test system of assay [1] is MDA-MB-231 cells. Nature of the assay: MTT cytotoxicity assay, MDA-MB-231. The class given is cell-based. Conditions: Homo sapiens, 36 hours, read-out: Cancer Cell Cytotoxicity IC50 MDA-MB-231. The protocol:
(§1) In order to determine the cytotoxic activity of LFM and its analogs against breast cancer cells, cells in alpha-MEM supplemented with 10% (v/v) fetal calf serum were treated with various concentrations of the compounds for 24 hours at 37° C., washed twice in alpha-MEM, and then used in either MTT assays or in vitro invasion assays, as described hereinafter.
(§2) The cytotoxicity of various compounds against human breast cancer cell lines was analyzed using the MTT (3-[4,5-dimethylthiazol-2-yl]-2,5-diphenyl tetrazolium bromide) assay (Boehringer Mannheim Corp., Indianapolis, Ind.). Uckun F. M., et al. Clin. Cancer Res. 1998, 4, 901-912. Exponentially growing breast cancer cells were seeded into a 96-well plate at a density of 2.5×10^4 cells/well and incubated for 36 hours at 37° C. prior to drug exposure. On the day of treatment, culture medium was carefully aspirated from the wells and replaced with fresh medium containing the LFM analogs at concentrations ranging from 2 to 250 μM. Triplicate wells were used for each treatment. The cells were incubated with the various compounds for 36 hours at 37° C. in a humidified 5% CO2 atmosphere. To each well, 10 μl of MTT (0.5 mg/ml final concentration) was added and the plates were incubated at 37° C. for 4 hours to allow MTT to form formazan crystals by reacting with metabolically active cells. The formazan crystals were solubilized overnight at 37° C. in a solution containing 10% SDS in 0.01 M HCl. The absorbence of each well was measured in a microplate reader (Labsystems) at 540 nm and a reference wavelength of 690 nm.
(§3) To translate the absorbance A540 values into the number of live cells in each well, the A540 values were compared to those on standard A540-versus-cell number curves generated for each cell line. The percent survival was calculated using the formula: % survival=Live cell number[test]/Live cell number [control]×100. The IC50 values were calculated by non-linear regression analysis using an Graphpad Prism software version 2.0 (Graphpad Software, Inc., San Diego, Calif.).
(Formazan colour is commonly taken as a measure of viable cells.)

The next assay concerns MDA-MB-361 cells. In words: MTT cytotoxicity assay, MDA-MB-361. The class given is cell-based. Particulars: Homo sapiens, 36 hours, read-out: Cancer Cell Cytotoxicity IC50 MDA-MB-361. How it is done:
as §1, §2, §3

The target in another assay is T1, EGFR tyrosine kinase (Homo sapiens, UniProt P00533).
T1 construct: anti-EGFR immunoprecipitates from lysates of MDA-MB-231 human breast cancer cells; endogenous in cells; host or cells: MDA-MB-231 (ATCC HTB-26)
T1 sequence (P00533 25-1210): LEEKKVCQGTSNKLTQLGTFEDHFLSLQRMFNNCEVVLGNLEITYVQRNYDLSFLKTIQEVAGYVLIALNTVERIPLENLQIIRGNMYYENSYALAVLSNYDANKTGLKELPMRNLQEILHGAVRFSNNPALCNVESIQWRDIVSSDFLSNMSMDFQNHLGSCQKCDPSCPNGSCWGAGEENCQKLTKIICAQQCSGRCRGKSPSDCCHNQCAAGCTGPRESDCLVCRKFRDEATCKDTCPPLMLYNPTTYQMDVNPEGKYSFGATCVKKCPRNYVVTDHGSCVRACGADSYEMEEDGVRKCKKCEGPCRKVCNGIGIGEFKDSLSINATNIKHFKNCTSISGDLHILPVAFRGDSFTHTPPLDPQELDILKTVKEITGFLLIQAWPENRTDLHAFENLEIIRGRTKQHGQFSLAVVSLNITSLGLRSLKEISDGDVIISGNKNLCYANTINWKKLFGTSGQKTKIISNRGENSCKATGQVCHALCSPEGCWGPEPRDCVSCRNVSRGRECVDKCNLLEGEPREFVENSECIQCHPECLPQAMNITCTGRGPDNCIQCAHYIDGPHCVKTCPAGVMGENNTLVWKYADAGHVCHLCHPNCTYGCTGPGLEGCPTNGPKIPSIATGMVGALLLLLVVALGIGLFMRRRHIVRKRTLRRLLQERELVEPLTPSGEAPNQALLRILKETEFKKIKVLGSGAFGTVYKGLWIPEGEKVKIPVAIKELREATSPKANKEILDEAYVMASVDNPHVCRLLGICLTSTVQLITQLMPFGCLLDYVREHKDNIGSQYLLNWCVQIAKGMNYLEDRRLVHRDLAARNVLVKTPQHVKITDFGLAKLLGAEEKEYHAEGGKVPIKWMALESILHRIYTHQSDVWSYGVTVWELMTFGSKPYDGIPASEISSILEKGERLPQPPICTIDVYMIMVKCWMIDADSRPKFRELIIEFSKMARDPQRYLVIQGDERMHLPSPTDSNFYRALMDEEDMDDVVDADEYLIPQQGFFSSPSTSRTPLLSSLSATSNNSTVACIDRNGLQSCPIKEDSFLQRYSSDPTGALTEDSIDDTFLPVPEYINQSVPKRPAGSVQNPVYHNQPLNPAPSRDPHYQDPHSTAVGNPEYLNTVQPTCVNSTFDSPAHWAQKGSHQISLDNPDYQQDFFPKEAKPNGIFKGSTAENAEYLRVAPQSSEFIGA
Nature of the assay: Cell-free EGFR immune complex kinase assay. In kind it is biochemical. Particulars: EGFR immunoprecipitated from MDA-MB-231 lysates, 1 hour incubation, read-out: EGFR Inhibition IC50. The protocol:
For EGFR immune complex kinase assays, 24-hours after treatment with leflunomide analogs, MDA-MB-231 breast cancer cells were stimulated with 20 ng/mL EGF for 5 minutes, lysed in 1% Nonidet-P-40 buffer, and cell lysates were immunoprecipitated with an anti-EGFR antibody reactive with the sequence Ala^351-Asp^364 of the human EGFR (Upstate Biotechnology Inc. [UBI] Catalog # 05-104) (Uckun, F. M., et al. Clin. Can. Res. 1998, 4, 901). EGFR immune complexes were examined for tyrosine phosphorylation by Western blot analysis, as described by Uckun, F. M., et al. Clin. Can. Res. 1998, 4, 901. All anti-phosphotyrosine Western blots were subjected to densitometric scanning using the automated AMBIS system (Automated Microbiology System, Inc., San Diego, Calif.) and for each time point a % inhibition value was determined by comparing the density ratios of the tyrosine phosphorylated EGFR protein bands to those of the baseline sample and using the formula: % Inhibition=100−100×[Density of tyrosine phosphorylated EGFR band]test sample/[Density of tyrosine phosphorylated EGFR band]baseline control sample. The IC50 values were determined using an Inplot program (Graphpad Software, Inc., San Diego, Calif.).
In other experiments, MDA-MB-231 cells were stimulated with 10 ng/ml EGF prior to immunoprecipitation of the EGFR. EGFR immune complexes were incubated for 1 hour at room temperature with various LFM analogs and tyrosine kinase assays were performed in the presence of [γ-^32P]-ATP, as previously described (Uckun, F. M., et al. Clin. Can. Res. 1998, 4, 901; Narla, R. K., et al. Clin. Can. Res 1998, 1405; Uckun, F. M., et al. Science 1996, 22, 1096; Uckun, F. M., et al. Science 1995, 267, 886). The kinase assay gels were analyzed both by autoradiography and using the BioRad Storage Phosphor Imager System (BioRad, Hercules, Calif.) for quantitative scanning.

The test system of assay [2] is MDA-MB-231 cells. Nature of the assay: Confocal laser scanning microscopy of treated cells. The class given is cell-based, human. Conditions: MDA-MB-231, 100 μM, 24 hours, α-tubulin / TOTO-3 staining. How it is done:
Immunofluorescence was used to examine the morphologic features of breast cancer cells treated with LFM and its analogs. Before the experiment, cells were trypsinized from rapidly growing tissue culture flasks and seeded onto sterile 22 mm^2 coverslips in 6-well culture plates. Cells on coverslips were returned to the incubator for 24 hours prior to treatment. The following day, drugs were added from a stock solution made in DMSO to a final concentration of 100 μM. Final DMSO concentration was 0.1% in both test samples and controls. Cells were returned to a 37° C. incubator for 24 hours before further processing.
At 24 hours, coverslips were fixed in −20° C. methanol for 15 minutes followed by a 15 minute incubation in phosphate buffered saline +0.1% Triton X-100(PBS-Tx). Coverslips were next incubated with a monoclonal antibody against α-tubulin (Sigma Chemical Co, St. Louis, Mo.) at a dilution of 1:1000 for 40 minutes in a humidified chamber at 37° C. Coverslips were washed for 15 minutes in PBS-Tx followed by a 40 min incubation with a goat anti-mouse IgG antibody conjugated to FITC (Amersham Corp., Arlington Heights, Ill.). The coverslips were again rinsed in PBS-Tx and incubated with 5 μM TOTO-3 (Molecular Probes, Eugene Oreg.) for 20 minutes to label the nuclear DNA. […]

A value given as a limit tells only on which side of the number the result lay.

For `CC(O)=C(C#N)C(=O)Nc1ccc(Br)cc1` [LFM-A1, α-Cyano-β-hydroxy-β-methyl-N-(4-bromophenyl)propenamide], the IC50 was more than 300 µM with MDA-MB-231 cells [1], more than 300 µM with MDA-MB-361 cells and more than 100 µM on EGFR tyrosine kinase.

For the molecule `CC(O)=C(C#N)C(=O)Nc1ccc(Cl)cc1` [LFM-A2, α-Cyano-β-hydroxy-β-methyl-N-(4-chlorophenyl)propenamide], the IC50 is more than 300 µM with MDA-MB-231 cells [1], more than 300 µM with MDA-MB-361 cells and more than 100 µM at EGFR tyrosine kinase.

Regarding `CC(O)=C(C#N)C(=O)Nc1ccc(F)cc1` [LFM-A3, α-Cyano-β-hydroxy-β-methyl-N-(4-fluorophenyl)propenamide], the IC50 in the assay on MDA-MB-231 cells [1] is more than 300 µM; in the assay with MDA-MB-361 cells it was more than 300 µM; on EGFR tyrosine kinase, more than 100 µM. Moreover, in the assay with MDA-MB-231 cells [2], the “morphology and microtubular organization of treated cells” value is “did not affect the morphology or microtubular organization”.

In the case of `CC(O)=C(C#N)C(=O)Nc1ccccc1C(F)(F)F` [LFM-A4, α-Cyano-β-hydroxy-β-methyl-N-[2-(trifluoromethyl)phenyl]-propenamide], the IC50 in the assay on MDA-MB-231 cells [1] is more than 300 µM; in the assay on MDA-MB-361 cells, more than 300 µM; on EGFR tyrosine kinase, more than 100 µM.

As to `CC(O)=C(C#N)C(=O)Nc1ccccc1Br` [LFM-A5, α-Cyano-β-hydroxy-β-methyl-N-(2-bromophenyl)propenamide], the IC50 in the assay with MDA-MB-231 cells [1] is more than 300 µM; with MDA-MB-361 cells it was more than 300 µM; on EGFR tyrosine kinase, more than 100 µM.

Take `CC(O)=C(C#N)C(=O)Nc1ccccc1Cl` [LFM-A6, α-Cyano-β-hydroxy-β-methyl-N-(2-chlorophenyl)propenamide]: the IC50 in the assay with MDA-MB-231 cells [1] is more than 300 µM; in the assay on MDA-MB-361 cells it was more than 300 µM; at EGFR tyrosine kinase it was more than 100 µM.

In the case of `CC(O)=C(C#N)C(=O)Nc1ccccc1F` [LFM-A7, α-Cyano-β-hydroxy-β-methyl-N-(2-fluorophenyl)propenamide], the IC50 was more than 300 µM in the assay with MDA-MB-231 cells [1], more than 300 µM in the assay with MDA-MB-361 cells and 74.5 µM on EGFR tyrosine kinase.

For `CC(O)=C(C#N)C(=O)Nc1cccc(C(F)(F)F)c1` [LFM-A8, α-Cyano-β-hydroxy-β-methyl-N-[3-(trifluoromethyl)phenyl]-propenamide], the IC50 was more than 300 µM in the assay with MDA-MB-231 cells [1], more than 300 µM with MDA-MB-361 cells and more than 100 µM on EGFR tyrosine kinase.

On to `CC(O)=C(C#N)C(=O)Nc1cccc(Br)c1` [LFM-A9, α-Cyano-β-hydroxy-β-methyl-N-(3-bromophenyl)propenamide], for which the figures for the IC50 in the assay on MDA-MB-231 cells [1], with MDA-MB-361 cells and on EGFR tyrosine kinase were more than 300 µM, more than 300 µM and more than 100 µM, respectively.

`CC(O)=C(C#N)C(=O)Nc1cccc(Cl)c1` [LFM-A10, α-Cyano-β-hydroxy-β-methyl-N-(3-chlorophenyl)propenamide]: the IC50 was more than 300 µM in the assay on MDA-MB-231 cells [1], more than 300 µM in the assay with MDA-MB-361 cells and more than 100 µM at EGFR tyrosine kinase.

With `CC(O)=C(C#N)C(=O)Nc1cccc(F)c1` [LFM-A11, α-Cyano-β-hydroxy-β-methyl-N-(3-fluorophenyl)propenamide], the results for the IC50 in the assay on MDA-MB-231 cells [1], with MDA-MB-361 cells and on EGFR tyrosine kinase were more than 300 µM, more than 300 µM and more than 100 µM, respectively.

Take `CC(O)=C(C#N)C(=O)Nc1cc(Br)ccc1Br` [LFM-A13, α-Cyano-β-hydroxy-β-methyl-N-(2,5-dibromophenyl)propenamide]: the IC50 is more than 300 µM in the assay on MDA-MB-231 cells [1], more than 300 µM in the assay with MDA-MB-361 cells and more than 100 µM on EGFR tyrosine kinase.

`CC(O)=C(C#N)C(=O)Nc1ccccc1` [LFM-A14, α-Cyano-β-hydroxy-β-methyl-N-(phenyl)propenamide]: the IC50 was more than 300 µM in the assay on MDA-MB-231 cells [1], more than 300 µM in the assay on MDA-MB-361 cells and more than 100 µM at EGFR tyrosine kinase.
